{
  "source": "patent US20130244257A1",
  "about": "“INTEGRATED MICROFLUIDIC RADIOASSAY AND IMAGING PLATFORM FOR SMALL SAMPLE ANALYSIS” (THE REGENTS OF THE UNIVERSITY OF CALIFORNIA, priority 2010, published 2013)",
  "tested_on": "BCR-ABL",
  "experiment": "effect of the buffer surfactant on BCR-ABL kinase activity in the in vitro kinase radio assay",
  "format": "biochemical",
  "conditions": "0.1% in all buffers",
  "procedure": "Off-Chip And On-Chip In Vitro Kinase Radio Assays were performed for comparison. In vitro kinase assays were performed using established protocols for bead-based immunoaffinity capture of a specific kinase followed by kinase reactions in the presence of a kinase-specific peptide substrate and ^32P labeled ATP. The microfluidic on-chip assay was developed using reagents that were compatible and efficient in the context of microfluidic channels and valves. For the microfluidic assay, 0.1% n-dodecyl-beta-D-maltoside (DDM) was added to all buffers to prevent bead clumping (indicated by /DDM in the buffer name). […] For BCR-ABL kinase immunocapture, the off-chip assay used agarose protein NG beads (40-160 μm; Pierce, Rockford, Ill.) and the on-chip assay used smaller and more sturdy Protein G polystyrene beads (6.7 μm; Spherotech Inc., Lake Forest, Calif.). The large average size and fragility of the agarose beads precluded their use on-chip, and the small size of the polystyrene beads made them impractical for the pipeting-based off-chip assay. Both bead types were coated with anti-c-ABL antibody (OP20, EMD Chemicals).",
  "data": [
    {"smiles": "CCCCCCCCCCCCO[C@@H]1O[C@H](CO)[C@@H](O[C@H]2O[C@H](CO)[C@@H](O)[C@H](O)[C@H]2O)[C@H](O)[C@H]1O", "note": "[DDM, n-dodecyl-beta-D-maltoside]", "values": [
      {"measurement": "effect on BCR-ABL kinase activity", "result": "no detectable effect"}
    ]}
  ]
}
